Molecules are shown by their SMILES. Read-outs that look alike come from different tables or passages of the source.

These results are taken from patent publication US20190269801A1 (CEDARS-SINAI MEDICAL CENTER, priority 2016, published 2019).

The subject of series [1] is B-cell lymphoma cell lines Namalwa, Raji, CA46, Ramos, Daudi. Nature of the series: Growth and viability of B-cell Burkitt's lymphoma cell lines, MTT, 72 h. To be noted: B-cell lymphoma cell lines, 72 h. The class given is cell-based, human. How it is done:
5,000 cells/well renal cancer cells and 10,000 cells/well lymphoma cells are seeded in 96 well plates in 100 microliter medium/per well for 24 h. […] Renal cancer cells are fixed with 3.7% paraformaldehyde for 15 minutes and are stained with Crystal violet solution (0.5% in 25% methanol) for 30 minutes. After rinsing with water cell layers are dried and decolorized with Sorenson citrate with shaking for 20 minutes. […] Lymphoma cell growth was evaluated using MTT and cells are incubated for 4 hours.
(§1) Induction of apoptosis was assessed using a caspase 3/7 luminescent assay. Cleavage of apoptosis substrates and inhibition of c-myc was determined by western blotting, with images quantified by ImageJ after normalization with GAPDH. […] Formalin-fixed tumor and kidney sections were stained with hematoxylin and esosin and kidney sections scored using a semiquantitative scale designed to assess AKI-associated tubular injury (tubular epithelial cell loss, necrosis, tubular epithelial simplification, intratubular debris, and casts).

Series [2] relates to mouse kidneys. Nature of the series: Kidney histopathology in RCC tumor-bearing mice (H&E, semiquantitative score). To be noted: i.p. 3 times a week for 4 weeks. As to the method: (§2) Apoptosis was assessed by caspase 3/7 luminescent assay. Cleavage of apoptosis substrates was determined by western blotting. […] Formalin-fixed tumor, liver and kidney sections were stained with H&E and kidney sections were scored semiquantitativey.

In a further series the test system is Namalwa tumors. Nature of the series: Namalwa xenograft growth in mice. It is filed as in vivo, mouse. To be noted: equimolar doses i.p. 3 times a week.
The subject of another series is Renca tumors. To be noted: equimolar doses i.p. 3 times a week. As to the method: (§3) Tumor size is measured using a formula (length×width^2)/2.
as §2

In a further series the test system is ACHN tumors. To be noted: equimolar doses i.p. 3 times a week. As to the method:
as §3, §2

Series [3] relates to Namalwa and Raji cell lines. Nature of the series: Apoptosis by caspase 3/7 luminescent assay and western blot in BL cell lines. The class given is cell-based, human. To be noted: 24 hours of drug exposure; 8, 16, 32 μM. As to the method:
Namalwa cells are cultured in RPMI 1640, 10% fetal bovine serum, 1% PenStrep, and placed in a humidified atmosphere containing 5% CO2 at 37° C. 10,000-15,000 cells/well are seeded in 96 white wall well plates in 100 microliter medium/per well for 24 h. […] 100 microliters of Caspase-Glo 3/7 assay is added and luminescence is then read. Caki-1 cells are cultured in RPMI 1640, 10% fetal bovine serum, 1% PenStrep, and placed in a humidified atmosphere containing 5% CO2 at 37° C. 5,000 cells/well are seeded in 96 white wall well plates in 100 microliter medium/per well for 24 h. […] 100 microliters of Caspase-Glo 3/7 assay is added and luminescence is then read.
(A western blot detects proteins with antibodies after separation by electrophoresis.)

In series [4] the test system is Namalwa cell line-derived xenografts. Nature of the series: NIR-dye-cisplatin uptake in Namalwa xenografts vs organs (NIRF microscopy, IVIS). Conditions: in vivo. From the text:
FIG. 28 depicts in accordance with various embodiments of the invention, B-cell lymphoma cell line (Namalwa) subcutaneus tumor xenografts in NCR-NU mice were extracted after the mice were sacrificed. NIR-dye-cisplatin uptake in tumors were imaged by a near-infrared fluorescence (NIRF) microscopy and IVIS Lumina XR Imaging System.

The subject of series [5] is ex vivo expanded CTCs from PC patients and LNCaP and C4-2B cells from mouse bone marrow, 3-D spheroids. Nature of the series: Viability/apoptosis of PC CTCs and bone marrow-derived LNCaP and C4-2B grown as 3-D spheroids. It is filed as cell-based, human. As to the method: Immortalized PC cell lines (PC3, LNCaP, C4-2, C4-2B, 22Rv1) and 3-D spheroid growth of mouse bone marrow-derived LNCaP and C4-2B and ex vivo expanded CTCs from patients were used. […] Induction of apoptosis was assessed by caspase 3/7 luminescent assay. Growth inhibitory effects were compared between 2-D and 3-D. Senescent luciferase-tagged LNCaP and C4-2B cells from mouse bone marrow regained growth potential when propagated in vitro as 3D spheroids. RPMI medium supplemented with 10% FBS and 1% penicillin/streptomycin was used to grow CTCs in vitro.

Series [6] concerns ovarian tumor cells OV90 and OVCA433. To be noted: in vitro.
The next series has as its system Caki-1 cells. The series is described as follows: Apoptosis by caspase 3/7 luminescent assay and western blot in Caki-1 cells. It is filed as cell-based, human. Conditions: 24 hours of drug exposure, 8, 16, and 32 μM. As to the method: 10,000-15,000 cells/well are seeded in 96 white wall well plates in 100 microliter medium/per well for 24 h. […] 100 microliters of Caspase-Glo 3/7 assay is added and luminescence is then read. […] 5,000 cells/well are seeded in 96 white wall well plates in 100 microliter medium/per well for 24 h. […] 100 microliters of Caspase-Glo 3/7 assay is added and luminescence is then read.
as §2

For series [7], the system named is mouse kidneys. Nature of the series: Kidney histopathology, AKI-associated tubular injury score, Namalwa-bearing mice. Conditions: i.p. 3 times a week for 4 weeks. How it is done: FIG. 27 depicts in accordance with various embodiments of the invention, formalin-fixed kidney sections are stained with hematoxylin and esosin and scored using a semiquantitative scale designed to assess AKI-associated tubular injury (tubular epithelial cell loss, necrosis, tubular epithelial simplification, intratubular debris, and casts).
as §1

Consider `CC1(C)C(/C=C/C2=C(Cl)C(=C/C=C3/N(CCCCCC(=O)[O][Pt]([NH2])([NH2])([OH])([Cl])[Cl])c4ccccc4C3(C)C)/CCC2)=[N+](CCCCS(=O)(=O)[O-])c2ccccc21` [NIR dye-cisplatin, DZ-1-cisplatin], for which the “antitumor effect (in words)” value in [1] is recorded as “even more potent antitumor effect”. The “kidney toxicity (histopathology)” value in the series on mouse kidneys [2] was “preserved the integrity and normal morphology of mouse kidneys”; with mouse kidneys [7] it was “preserves the integrity and normal morphology of mouse kidneys”. Also, the tumor growth inhibition result in the series on Namalwa tumors was “more effective than cisplatin”; with Renca tumors, “tumor growth inhibition and apoptotic nuclear lobulation/fragmentation”; with Renca tumors (listed as dye-cisplatin), “more effective than cisplatin”; in the series with ACHN tumors it was “tumor growth inhibition and apoptotic nuclear lobulation/fragmentation”; with ACHN tumors (listed as dye-cisplatin), “more effective than cisplatin”. The “induction of apoptosis (caspase 3/7; caspase 9, caspase 3 and PARP)” value in series [3] is “induces apoptosis”. Moreover, the “accumulation in cell line-derived xenografts relative to mouse kidneys and lungs” value in series [4] was 7-15 times. Further, the “sensitivity of cells grown as 3-D spheroids” value in [5] is given as “extremely sensitive”. In series [6], the “sensitivity of cell growth relative to unconjugated drug” value was “more sensitive”. Moreover, the “induction of apoptosis (caspase 3/7, apoptosis related markers)” value was “induced apoptosis” in the series with Caki-1 cells and “induces apoptosis” in the series with Caki-1 cells (listed as dye-cisplatin).
